The results in this text go back to patent US7977371B2, “Pyrrole derivative having ureido group and aminocarbonyl group as substituents” (Santen Pharmaceutical Co., Ltd., priority 2007, dated 2011).

Molecules are shown by their SMILES.

In the experiment the test system is TNF-α-induced IL-6 production in normal human skin fibroblast-derived CCD-1059Sk cells. Briefly: Test for measurement of inhibitory activity against TNF-α-induced IL-6 production. As to conditions: Homo sapiens, test compound at 10 μM, TNF-α stimulation 16 hours, inhibition ratio of 100% or more is indicated as 100%. Type of experiment: cell-based. Here is the method: 1. Test for Measurement of Inhibitory Activity Against IL-6 Production
An inhibitory effect on TNF-α-induced IL-6 production in normal human skin fibroblast-derived CCD-1059Sk cells (ATCC No. CRL-2072) was evaluated. The amount of IL-6 was determined by the homogeneous time-resolved fluorescence method using HTRF™ Human IL-6 kit (Cat. No. 62IL6PEB, manufactured by CIS-Bio international, Inc.). Specific test methods will be described below.
(Preparation of Test Compound Solution)
After a test compound was dissolved in dimethyl sulfoxide, the resulting solution was diluted with D-MEM medium containing 0.1% heat-inactivated fetal bovine serum, 0.1 mM MEM non-essential amino acid solution, 100 U/mL penicillin and 100 μg/mL streptomycin (hereinafter referred to as “medium”), whereby a 40 μM test compound solution was prepared.
(Test Method and Measurement Method)
1) CCD-1059Sk cells prepared at a density of 3×10^5 cells/mL were inoculated in a 384-well plate in an amount of 10 μL per well such that the cell density was 3×10^3 cells/well.
2). After the plate was incubated at 37° C. for several hours in a CO2 incubator, 5 μL of the test compound was added to each well.
3) After the plate was incubated at 37° C. for 1 hour in a CO2 incubator, 5 μL of a 40 ng/mL TNF-α solution was added to each well.
4) After the plate was incubated at 37° C. for 16 hours in a CO2 incubator, 10 μL of a cryptate-labeled anti-IL-6 antibody and an XL665-labeled anti-IL-6 antibody containing potassium fluoride was added to each well.
5) After the plate was incubated at room temperature for several hours, a fluorescence intensity ratio (665 nm/620 nm) was determined for each well using a multimode plate reader Analyse™ HT (manufactured by Molecular Device Corporation) and Criterion Host software version 2.00 (manufactured by Molecular Device Corporation), and then, the amount of IL-6 was calculated.
6) The same procedures as in the above 1) to 5) were performed except that 0.4% dimethyl sulfoxide was added in place of the test compound, and the obtained result was designated as the control.
7) The same procedures as in the above 1) to 5) were performed except that 0.4% dimethyl sulfoxide and the medium were added in place of the test compound and the TNF-α solution, respectively, and the obtained result was designated as the background.
(Calculation Formula of IL-6 Production Inhibition Ratio)
An IL-6 production inhibition ratio (%) was calculated from the following formula. IL-6 Production Inhibition Ratio (%)=100×{1−[(Amount of IL-6 for Test Compound)−(Amount of IL-6 for Background)/(Amount of IL-6 for Control)−(Amount of IL-6 for Background)]} (Evaluation Results)

Broadly, the inhibition is the change of the read-out against control, counted positive when it falls. As to `NC(=O)Nc1[nH]c(-c2ccccc2OCc2cccnc2)cc1C(N)=O` [Compound 4-15, 2-Aminocarbonylamino-5-[2-(pyridin-3-ylmethyloxy)phenyl]pyrrole-3-carboxamide], the inhibition at 10 µM (CCD-1059Sk, 16 h) amounted to 91%.

With `NC(=O)Nc1[nH]c(-c2ccccc2OCC2CC2)cc1C(N)=O` [Compound 4-23, 2-Aminocarbonylamino-5-(2-cyclopropylmethyloxyphenyl) pyrrole-3-carboxamide], the inhibition at 10 µM (CCD-1059Sk, 16 h) is 97%.

As to `NC(=O)Nc1[nH]c(-c2ccccc2OCCCF)cc1C(N)=O` [Compound 4-24, 2-Aminocarbonylamino-5-[2-(3-fluoropropyloxy)phenyl] pyrrole-3-carboxamide], the inhibition at 10 µM (CCD-1059Sk, 16 h) is 99%.

Take `NC(=O)Nc1[nH]c(-c2ccccc2OCCN2CCCCC2)cc1C(N)=O` [Compound 4-27, 2-Aminocarbonylamino-5-[2-[2-(piperidin-1-yl)ethyloxyl]phenyl]pyrrole-3-carboxamide]: for the setting “CCD-1059Sk, 16 h”, the inhibition at 10 µM stood at 99%.

With `CN(C)CCCOc1ccccc1-c1cc(C(N)=O)c(NC(N)=O)[nH]1` [Compound 4-30, 2-Aminocarbonylamino-5-[2-(3-dimethylaminopropyloxy)phenyl]pyrrole-3-carboxamide], for the setting “CCD-1059Sk, 16 h”, the inhibition at 10 µM is 99%.

Turning to `CN(C)CCOc1ccccc1-c1cc(C(N)=O)c(NC(N)=O)[nH]1` [Compound 4-31, 2-Aminocarbonylamino-5-[2-(2-dimethylaminoethyloxy)phenyl]pyrrole-3-carboxamide], where the note is “CCD-1059Sk, 16 h”, the inhibition at 10 µM turned out to be 98%.

For `CN1CCCC1CCOc1ccccc1-c1cc(C(N)=O)c(NC(N)=O)[nH]1` (centres unmarked) [Compound 4-32, 2-Aminocarbonylamino-5-[2-[2-(1-methylpyrrolidin-2-yl)ethyloxy]phenyl]pyrrole-3-carboxamide], the inhibition at 10 µM (CCD-1059Sk, 16 h) stood at 99%.

In the case of `NC(=O)Nc1[nH]c(-c2cc(F)ccc2OCCCO)cc1C(N)=O` [Compound 4-35, 2-Aminocarbonylamino-5-[5-fluoro-2-(3-hydroxypropyloxy)phenyl]pyrrole-3-carboxamide], under “CCD-1059Sk, 16 h”, the inhibition at 10 µM was 100%.

As to `CCOc1ccc(F)cc1-c1cc(C(N)=O)c(NC(N)=O)[nH]1` [Compound 4-47, 2-Aminocarbonylamino-5-(2-ethoxy-5-fluorophenyl)pyrrole-3-carboxamide], for the setting “CCD-1059Sk, 16 h”, the inhibition at 10 µM is 100%.

Consider `CCOc1ccc(Cl)cc1-c1cc(C(N)=O)c(NC(N)=O)[nH]1` [Compound 4-48, 2-Aminocarbonylamino-5-(5-chloro-2-ethoxyphenyl)pyrrole-3-carboxamide], for which, for the setting “CCD-1059Sk, 16 h”, the inhibition at 10 µM was 100%.

On to `C=CCOc1ccc(Cl)cc1-c1cc(C(N)=O)c(NC(N)=O)[nH]1` [Compound 4-49, 5-(2-Allyloxy-5-chlorophenyl)-2-(aminocarbonylamino)pyrrole-3-carboxamide], for which, under “CCD-1059Sk, 16 h”, the inhibition at 10 µM turned out to be 100%.

For the compound `C#CCOc1ccc(Cl)cc1-c1cc(C(N)=O)c(NC(N)=O)[nH]1` [Compound 4-50, 2-Aminocarbonylamino-5-[5-chloro-2-(2-propynyloxy)phenyl]pyrrole-3-carboxamide], the inhibition at 10 µM (CCD-1059Sk, 16 h) stood at 100%.

Consider `CC(=O)Oc1ccccc1-c1cc(C(N)=O)c(NC(N)=O)[nH]1` [Compound 5-1, 2-Aminocarbonylamino-5-(2-acetoxyphenyl)pyrrole-3-carboxamide], for which the inhibition at 10 µM (CCD-1059Sk, 16 h) is 94%.

With `CCCNC(=O)Oc1ccccc1-c1cc(C(N)=O)c(NC(N)=O)[nH]1` [Compound 6-1, 2-Aminocarbonylamino-5-(2-propylaminocarbonyloxyphenyl)pyrrole-3-carboxamide], the inhibition at 10 µM was found to be 99%.

With `NC(=O)Nc1[nH]c(-c2ccc(F)cc2)c(Cl)c1C(N)=O` [Compound 7-3], for the setting “CCD-1059Sk, 16 h”, the inhibition at 10 µM stood at 98%.

For the compound `NC(=O)Nc1[nH]c(-c2ccccc2OCCCN2CCCC2)cc1C(N)=O` [Compound 8-1, 2-Aminocarbonylamino-5-[2-[3-(pyrrolidin-1-yl)propyloxy]phenyl]pyrrole-3-carboxamide], where the note is “CCD-1059Sk, 16 h”, the inhibition at 10 µM stood at 97%.

On to `CN1CCN(CCOc2ccccc2-c2cc(C(N)=O)c(NC(N)=O)[nH]2)CC1` [Compound 8-2], for which the inhibition at 10 µM (CCD-1059Sk, 16 h) came to 77%.
